Here are results for 29 molecules from the C3SDB collision cross section collection.

Values joined by “and” are separate entries in the source; they are usually repeats but may differ in a detail not shown here. Identical values can stand only once.

For series [1] the following is noted: [M+H3C2O2]-; instrument: TW; calibrated with polyalanine.
For series [2] the following is noted: instrument: DT, single field, calibrated with Agilent tune mix (Agilent).
For series [3] the following is noted: instrument: DT, stepped-field.
The conditions of series [4]: instrument: TW, calibrated with phosphatidylcholines (ESI+) and phosphatidylethanolamines (ESI-).
For series [5] the following is noted: [M+H]+; instrument: DT; stepped-field.
For series [6] the following is noted: instrument: DT, single field.
The conditions of series [7]: instrument: DT, stepped-field. The source holds these as a separate data set.
The conditions of series [8]: [M-H]-; instrument: TW; calibrated with phosphatidylcholines (ESI+) and phosphatidylethanolamines (ESI-).

Take `CC(=O)O[C@@H]1C[C@]2(C)[C@@]3(CO)[C@H](O)C(=O)C(C)=C[C@H]3O[C@H]1[C@@]21CO1` [3-Acetyldeoxynivalenol]: the “collision cross section (N2)” value in series [1] worked out at 196 Å².

As to `CC(=O)OC[C@]12[C@H](O)C(=O)C(C)=C[C@H]1O[C@@H]1[C@H](O)C[C@@]2(C)[C@]12CO2` [15-Acetyldeoxynivalenol], in series [1], the “collision cross section (N2)” value worked out at 196 Å².

Take `CCCCCCCC/C=C\CCCCCCCC(=O)OC[C@@H](O)COP(=O)([O-])OCC[N+](C)(C)C` [LPC(18:1)]: the “collision cross section (N2)” value is 238.6 Å² in series [2] ([M+HCOO]-); 236.1 Å² in series [2] ([M+Na]+); 236.2 Å² in series [3] ([M+H]+); 230.8 Å² in series [4] ([M+H]+); 235.59 Å² and 236.1 Å² in series [5].

As to `CCCCCC/C=C\CCCCCCCCCC(=O)OC[C@H](COP(=O)([O-])OCC[N+](C)(C)C)OC(=O)CCCCCCC/C=C\CCCCCC` [PC(34:2)], the “collision cross section (N2)” value was 282.64 Å² and 284.2 Å² in series [6] ([M+H]+); 285.5 Å² in series [2] ([M+HCOO]-); 285.2 Å² in series [2] ([M+H]+); 289.4 Å² in series [2] ([M+Na]+); 291.3 Å² in series [7] ([M+K]+); 302.6 Å² in series [3] ([M+H]+). For the same molecule, the “collision cross section (N2)” value in series [4] ([M+CH3COO]-) was 287.7 Å²; in series [4] ([M+H]+), 281.7 Å².

Take `CCCCCCCC/C=C\CCCCCCCCCCCC(=O)OC[C@H](COP(=O)([O-])OCC[N+](C)(C)C)OC(=O)CCCCCCCCCCCCC` [PC(36:1)]: the “collision cross section (N2)” value in series [6] ([M+H]+) turned out to be 292.57 Å²; in series [6] ([M+Na]+), 294 Å²; in series [2] ([M+HCOO]-), 292.3 Å²; in series [2] ([M+H]+), 293.9 Å²; in series [2] ([M+Na]+), 297.1 Å²; in series [3] ([M+H]+), 306.2 Å². The entries for the “collision cross section (N2)” value in series [4] ([M+CH3COO]-) and in series [4] ([M+H]+) were 294.5 Å² and 291.6 Å², respectively.

On to `CC/C=C\C/C=C\C/C=C\CCCCCCCC(=O)OC[C@H](COP(=O)([O-])OCC[N+](C)(C)C)OC(=O)CCCCCC/C=C\C/C=C\C/C=C\CCCCC` [PC(38:6)], for which the “collision cross section (N2)” value is recorded as 291.9 Å² in series [2] ([M+HCOO]-); 293.3 Å² in series [2] ([M+Na]+); 299.9 Å² in series [3] ([M+H]+); 294 Å² in series [4] ([M+CH3COO]-); 286.8 Å² in series [4] ([M+H]+).

On to `CCCC/C=C\CCCCCCCCCC(=O)OC[C@H](COP(=O)(O)OCCN)OC(=O)CCCCCCCCC/C=C\CCCC` [PE(16:1/16:1)], for which the “collision cross section (N2)” value in series [3] ([M+H]+) is listed as 276.6 Å².

As for `CCCC/C=C\CCCCCCCCCCCC(=O)O[C@H](COC(=O)CCCCCCCCCCCCCCCCCCC)COP(=O)(O)OCCN` [PE(38:1)], the “collision cross section (N2)” value in series [3] ([M+H]+) is on record as 299.8 Å².

Turning to `CCCCCC/C=C\CCCCCCCC(=O)OC[C@H](COP(=O)(O)OCCN)OC(=O)CCCCCCCCC/C=C\CCCCCCCCCC` [PE(38:2)], the “collision cross section (N2)” value in series [2] ([M+H]+) is 285.1 Å²; in series [3] ([M+H]+) it was 298.6 Å²; in series [4] ([M-H]-), 274.1 Å².

As for `CCCCC/C=C\C/C=C\CCCCCCCCCCCC(=O)O[C@H](COC(=O)CCCCCCC/C=C\CCCCCC)COP(=O)(O)OCCN` [PE(38:3)], the “collision cross section (N2)” value in series [2] ([M-H]-) was found to be 273.3 Å²; in series [7] ([M+Na]+), 289.3 Å²; in series [3] ([M+H]+), 297.1 Å²; in series [4] ([M-H]-) it was 271.7 Å².

Turning to `CCCCC/C=C\C/C=C\C/C=C\C/C=C\CCCCCC(=O)O[C@H](COC(=O)CCCCCCC/C=C\C/C=C\CCCCC)COP(=O)(O)OCCN` [PE(40:6)], the “collision cross section (N2)” value was 284.5 Å² in series [2] ([M+H]+); 290.3 Å² in series [2] ([M+Na]+); 276.2 Å² in series [2] ([M-H]-); 294.7 Å² in series [7] ([M+K]+); 289.4 Å² in series [3] ([M-H]-); 282.9 Å² in series [4] ([M+H]+). Moreover, the “collision cross section (N2)” value in series [4] ([M-H]-) is recorded as 275.4 Å².

For the molecule `CCCCC/C=C\C/C=C\C/C=C\CCCCC(=O)O[C@H](COCCCCCCCCCCCCCCCCCC)COP(=O)(O)OCCN` [PE(o36:3)], the “collision cross section (N2)” value in series [7] ([M+Na]+) was 285.4 Å²; in series [3] ([M+H]+), 290.1 Å²; in series [3] ([M-H]-) it was 273.1 Å².

In the case of `CCCCC/C=C\C/C=C\C/C=C\C/C=C\CCCC(=O)O[C@H](COCCCCCCCCCCCCCCCC)COP(=O)(O)OCCN` [PE(o36:4)], the “collision cross section (N2)” value in series [7] ([M+Na]+) amounted to 281.6 Å²; in series [3] ([M-H]-) it was 270 Å².

As to `CCCCC/C=C\C/C=C\C/C=C\C/C=C\C/C=C\CCC(=O)O[C@H](COCCCCCCCCCCCCCCCC)COP(=O)(O)OCCN` [PE(o38:5)], the “collision cross section (N2)” value in series [7] ([M+Na]+) is recorded as 287.7 Å²; in series [3] ([M-H]-), 277.8 Å².

In the case of `CCCCC/C=C\C/C=C\CCCCCCCCCCCC(=O)O[C@H](COC(=O)CCCCCCCCCCC)COP(=O)(O)OC[C@@H](O)CO` [PG(16:1/18:1)], the “collision cross section (N2)” value in series [3] ([M-H]-) is 274 Å² and 273.8 Å² and 274.3 Å².

For the molecule `CCCCCCCCCCCCCCCCC(=O)O[C@H](COC(=O)CCCCCCCCCCCCCC)COP(=O)(O)OC[C@@H](O)CO` [PG(32:0)], the “collision cross section (N2)” value in series [2] ([M-H]-) amounted to 265.1 Å²; in series [3] ([M-H]-), 270.3 Å²; in series [4] ([M+Na]+) it was 277.3 Å²; in series [4] ([M-H]-) it was 263.5 Å².

For the molecule `CCCCC/C=C\C/C=C\CCCCCCCCCC(=O)O[C@H](COC(=O)CCCCCCCCCCCCCC)COP(=O)(O)OC[C@@H](O)CO` [PG(35:2)], the “collision cross section (N2)” value in series [8] is given as 271.4 Å²; in series [3] ([M-H]-) it was 278.7 Å².

In the case of `CCCC/C=C\CCCCCCCC(=O)OC[C@H](COP(=O)(O)OC[C@@H](O)CO)OC(=O)CCCCCCCCCCC/C=C\C/C=C\CCCCC` [PG(36:3)], the “collision cross section (N2)” value in series [2] ([M+H]+) is reported as 285.4 Å²; in series [2] ([M+NH4]+), 286.5 Å²; in series [2] ([M-H]-), 272.8 Å²; in series [3] ([M-H]-), 280 Å²; in series [4] ([M+Na]+), 282 Å²; in series [4] ([M-H]-), 272.2 Å².

Take `CCCCC/C=C\C/C=C\CCCCCCCCCCCC(=O)O[C@H](COC(=O)CCCCCCCCCCCCCC)COP(=O)(O)OC[C@@H](O)CO` [PG(37:2)]: the “collision cross section (N2)” value in series [3] ([M-H]-) turned out to be 285.5 Å².

Regarding `CCCCCCCCCC/C=C\CCCCCCCCCC(=O)O[C@H](COC(=O)CCCCCCCCCCCCC)COP(=O)(O)O[C@H]1C(O)C(O)C(O)[C@@H](O)C1O` (some centres undefined) [PI(18:0/18:1)], the “collision cross section (N2)” value in series [3] ([M-H]-) was 297.5 Å² and 297.7 Å².

For the molecule `CCCC/C=C\C/C=C\CCCCCCCC(=O)O[C@H](COC(=O)CCCCCCC/C=C\CCCCCCCCC)COP(=O)(O)O[C@H]1C(O)C(O)C(O)[C@@H](O)C1O` (some centres undefined) [PI(36:3)], the “collision cross section (N2)” value in series [2] ([M+H]+) came to 296.4 Å²; in series [2] ([M+NH4]+) it was 297.4 Å²; in series [2] ([M+Na]+), 295.5 Å²; in series [3] ([M-H]-), 296.3 Å²; in series [4] ([M+Na]+), 291.1 Å²; in series [4] ([M-H]-), 287.2 Å².

Consider `CCCCCCCCC/C=C\CCCCCCCC(=O)O[C@H](COC(=O)CCCCCCCCCCCC)COP(=O)(O)OC[C@H](N)C(=O)O` [PS(16:0/16:1)], for which the “collision cross section (N2)” value in series [3] ([M-H]-) is reported as 272.6 Å².

In the case of `CCCCCCCC/C=C\CCCCCCCC(=O)O[C@H](COC(=O)CCCCCCCCCCCCCCC)COP(=O)(O)OC[C@H](N)C(=O)O` [PS(16:0/18:1)], in series [3] ([M-H]-), the “collision cross section (N2)” value amounted to 278.8 Å².

With `CCCC/C=C\CCCCCCCC(=O)OC[C@H](COP(=O)(O)OC[C@H](N)C(=O)O)OC(=O)CCCCCCC/C=C\CCCCCCCC` [PS(16:1/16:1)], the “collision cross section (N2)” value in series [3] ([M-H]-) was 270.6 Å².

With `CCCCCC/C=C\CCCCCCCC(=O)OC[C@H](COP(=O)(O)OC[C@H](N)C(=O)O)OC(=O)CCCCCCCCC/C=C\CCCCCCCCCC` [PS(38:2)], the “collision cross section (N2)” value in series [3] ([M-H]-) was 294.3 Å².

Regarding `CCCCC/C=C\C/C=C\CCCCCCCCCCCC(=O)O[C@H](COC(=O)CCCCCCCCCCCCCCCCC)COP(=O)(O)OC[C@H](N)C(=O)O` [PS(40:2)], the “collision cross section (N2)” value in series [3] ([M-H]-) turned out to be 301 Å².

With `CCCCC/C=C\C/C=C\CCCCCCCCCCCC(=O)O[C@H](COC(=O)CCCCCCC/C=C\CCCCCCCC)COP(=O)(O)OC[C@H](N)C(=O)O` [PS(40:3)], the “collision cross section (N2)” value in series [2] ([M+H]+) came to 295.2 Å²; in series [3] ([M-H]-), 299 Å².

Regarding `CCCCC/C=C\C/C=C\C/C=C\CCCCC(=O)OC[C@H](COP(=O)(O)OC[C@H](N)C(=O)O)OC(=O)CCCCCCCCCCC/C=C\C/C=C\CCCCC` [PS(40:5)], the “collision cross section (N2)” value came to 292.1 Å² in series [2] ([M+H]+); 296.7 Å² in series [2] ([M+Na]+); 285.7 Å² in series [2] ([M-H]-); 296.4 Å² in series [3] ([M-H]-); 285.6 Å² in series [4] ([M-H]-).

`CCCCC/C=C\C/C=C\C/C=C\C/C=C\CCCCCC(=O)O[C@H](COC(=O)CCCCCCC/C=C\C/C=C\CCCCC)COP(=O)(O)OC[C@H](N)C(=O)O` [PS(40:6)]: the “collision cross section (N2)” value in series [2] ([M+H]+) is recorded as 289.6 Å²; in series [2] ([M+Na]+), 293.9 Å²; in series [2] ([M-H]-) it was 284.9 Å²; in series [3] ([M-H]-) it was 295.4 Å²; in series [4] ([M-H]-) it was 284.6 Å².
